“And” between values parts separate entries of the source, which are not always exact repeats. Equal entries are not always repeated.
Tests used:
Type in all cases: cell-based
[1] = molecular target: T1, 320 non-olfactory GPCRs (Homo sapiens, UniProt P04201); conditions: receptor MAS1; replicate values, Fig_4g
T1 construct: expressed in transfected cells; host or cells: HTLA cells

[2] = molecular target: T2, 320 non-olfactory GPCRs (Homo sapiens, UniProt P29275)
T2 construct: expressed in transfected cells; host or cells: HTLA cells

[3] = molecular target: T3, 320 non-olfactory GPCRs (Homo sapiens, UniProt P33032); conditions: receptor MC5R; replicate values, Fig_4g
T3 construct: expressed in transfected cells; host or cells: HTLA cells

[4] = molecular target: 320 non-olfactory GPCRs (Homo sapiens, UniProt P43220)
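For Fold of Basal in this document: compound tested at 1 µM final concentration.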
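For GPCRome agonism screen response in this document: fold over basal response of each receptor without drug.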

T2 sequence (P29275 whole entry): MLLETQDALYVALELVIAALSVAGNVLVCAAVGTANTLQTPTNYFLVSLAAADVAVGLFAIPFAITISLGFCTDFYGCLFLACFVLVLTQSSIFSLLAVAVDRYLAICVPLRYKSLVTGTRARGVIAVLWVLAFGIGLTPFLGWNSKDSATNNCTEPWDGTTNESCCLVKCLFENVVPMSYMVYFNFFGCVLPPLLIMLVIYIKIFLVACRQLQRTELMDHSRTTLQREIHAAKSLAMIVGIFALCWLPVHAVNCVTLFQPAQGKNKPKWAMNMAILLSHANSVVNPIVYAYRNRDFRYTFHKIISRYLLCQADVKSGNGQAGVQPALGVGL
T3 sequence (P33032 whole entry): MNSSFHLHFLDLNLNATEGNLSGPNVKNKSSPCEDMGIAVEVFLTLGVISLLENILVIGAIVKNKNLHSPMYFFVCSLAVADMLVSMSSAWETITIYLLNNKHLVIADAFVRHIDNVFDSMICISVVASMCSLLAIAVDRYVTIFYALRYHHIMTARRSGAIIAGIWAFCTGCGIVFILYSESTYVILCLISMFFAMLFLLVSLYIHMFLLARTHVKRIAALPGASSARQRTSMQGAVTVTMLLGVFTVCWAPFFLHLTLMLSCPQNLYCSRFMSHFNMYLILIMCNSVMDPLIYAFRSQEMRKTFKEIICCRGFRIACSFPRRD
Sequence of 320 non-olfactory GPCRs (Homo sapiens, UniProt P43220) (P43220 24-463): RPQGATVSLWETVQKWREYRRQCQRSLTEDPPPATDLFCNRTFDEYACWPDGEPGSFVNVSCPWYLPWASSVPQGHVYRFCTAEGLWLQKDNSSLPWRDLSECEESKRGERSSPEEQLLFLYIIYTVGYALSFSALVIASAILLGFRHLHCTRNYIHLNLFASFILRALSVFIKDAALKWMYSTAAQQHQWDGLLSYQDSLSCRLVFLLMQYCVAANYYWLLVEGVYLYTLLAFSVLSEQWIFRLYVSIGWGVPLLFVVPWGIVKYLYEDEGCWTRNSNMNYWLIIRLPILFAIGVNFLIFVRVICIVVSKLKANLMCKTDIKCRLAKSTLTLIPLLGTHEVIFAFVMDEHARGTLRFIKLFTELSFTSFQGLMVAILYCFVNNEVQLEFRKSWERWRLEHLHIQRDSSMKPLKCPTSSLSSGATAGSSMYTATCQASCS
T1 sequence (P04201 whole entry): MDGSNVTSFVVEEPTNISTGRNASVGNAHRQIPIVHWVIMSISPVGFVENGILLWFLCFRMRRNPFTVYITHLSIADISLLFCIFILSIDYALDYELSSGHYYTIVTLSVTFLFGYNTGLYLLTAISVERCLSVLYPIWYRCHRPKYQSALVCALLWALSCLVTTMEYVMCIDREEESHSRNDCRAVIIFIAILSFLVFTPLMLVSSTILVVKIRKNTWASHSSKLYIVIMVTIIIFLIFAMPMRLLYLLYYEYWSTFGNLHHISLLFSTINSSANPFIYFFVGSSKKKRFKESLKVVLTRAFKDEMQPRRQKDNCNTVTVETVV

CCOc1cccc2cc(C(C)NCC3(O)CCCCC3)oc12 (stereo not shown) [O4LE6]
GPCRome agonism screen response [1]: 0.7017 and 0.6641 and 0.72
Fold of Basal [2]: 1.3919 and 1.763 and 1.526 and 2.198
GPCRome agonism screen response [3]: 1.253 and 1.116 and 1.497 and 1.062
Fold of Basal [4]: 0.6919 and 1.003 and 1.157 and 1.2674
